Test results as given in patent publication US12060576B2, “Compositions and methods for producing megakaryocytes” (Stellular Bio, Inc., priority 2018, dated 2024).

Key:
PBG1 iPSCs [1] = experiment: Phase I directed differentiation of PBG1 iPSCs to hemogenic endothelium, immunofluorescence staining of CD31 and CD34; assay type: cell-based, human; conditions: Laminin 521 matrix, versus control without WNT agonist
Description: FIG. 26A, FIG. 26B, and FIG. 26C depict immunofluorescence microscopy images of Day 6 Phase I cultures on Laminin 521. FIG. 26A depicts a control culture without WNT agonist.

PBG-1 iPSCs = experiment: Directed differentiation of PBG-1 to preMKs and MKs on a recombinant Laminin-521 matrix compared with Collagen IV, flow cytometry; assay type: cell-based, human; conditions: 3 days of Phase III (Day 6+6+3); preMKs from Laminin-521 or Collagen IV cultures
Experimental: FIG. 23A, FIG. 23B, and FIG. 23C depict use of recombinant Laminin 521 to support production and release of megakaryocytic progenitors in Phase II of directed differentiation of PBG1 cells. FIG. 23A depicts representative flow cytometric data from Phase II of PBG1 differentiation cultures utilizing a supportive matrix of 4.2 ug/cm^2 human Collagen IV. FIG. 23B depicts representative flow cytometric data from Phase II of PBG1 differentiation cultures utilizing a supportive matrix of 0.13 ug/cm^2 recombinant human Laminin 521. FIG. 23C depicts the cumulative yields of released preMKs (i.e. viable CD41+CD43+CD14−) per 6-well equivalent (i.e. 2 ml of media, 9.5 cm^2 surface area) between day 6+4 and 6+8 of Phase II directed differentiation cultures initiated with PBG1 iPSCs, utilizing a supportive matrix of 4.2 ug/cm^2 human Collagen IV or 0.13 ug/cm^2 recombinant human Laminin 521.
FIG. 25A and FIG. 25B show flow cytometric subset breakdowns of Phase III (Day 6+6+3) cultures. […] Non-MKs are CD61−, Immature MKs are CD61+CD42a−CD42b−, Apoptotic MKs are CD61+CD42a+CD42b−, and Mature MKs are CD61+CD42a+CD42b+.
Collagen IV is purified from human placental material and is only available as a Research Use Only reagent. […]

PBG1 iPSCs [2] = conditions: 0.6 uM in the first 48 hours of Phase I; Day 6+4; Laminin 521 matrix; versus control

## Cc1c[nH]c(-c2cnc(NCCNc3ccc(C#N)cn3)nc2-c2ccc(Cl)cc2Cl)n1 [CHIR99021]
PBG1 iPSCs [1]; 6 uM for the first 48 hours of differentiation only
  Phase I differentiation efficiency at day 6 (CD31 and CD34 staining): dramatic increase

## Laminin-521: recombinant human laminin 521, supportive matrix replacing Collagen IV for directed differentiation
PBG-1 iPSCs
  Proportion of CD61+ cells co-expressing CD42a and CD42b in Phase III versus Collagen IV: found to be similar

## CHIR98014
PBG1 iPSCs [1]; 0.6 uM for the first 48 hours of differentiation only
  Phase I differentiation efficiency at day 6 (CD31 and CD34 staining): dramatic increase
PBG1 iPSCs [2]
  Phase II output of preMKs (visual estimation of the number of CD41+ cells): higher output during Phase II
